In patent US20240197651A1, “DEXMECAMYLAMINE AND USES THEREOF” (Atacama Therapeutics, Inc., priority 2021, published 2024):

Experiments:
Assay type in all cases: in vivo
[1] = test system: patients with enlarged pores; test: Treatment of enlarged pores
Protocol: The compound of the disclosure (e.g., dexmecamylamine substantially free of exo-R-mecamylamine) is administered to patients with enlarged pores. […] In some embodiments, the compound is dexmecamylamine substantially free of exo-R-mecamylamine, or a pharmaceutically acceptable salt thereof. In some embodiments, the subject produces sebum in an amount of 100 μg/cm^2 and above (e.g., 125, 135, 150, 175, 200 μg/cm^2 or higher).

[2] = test system: patients with wrinkles; test: Treatment of wrinkles
Protocol: The compound of the disclosure (e.g., dexmecamylamine substantially free of exo-R-mecamylamine) is administered to patients with wrinkles. […] In some embodiments, the subject produces sebum in an amount of 100 μg/cm^2 and above (e.g., 125, 135, 150, 175, 200 μg/cm^2 or higher).

[3] = test system: patients with sebaceous cyst; test: Treatment of sebaceous cyst
Protocol: The compound of the disclosure (e.g., dexmecamylamine substantially free of exo-R-mecamylamine) is administered to patients with sebaceous cyst. […] In some embodiments, the subject produces sebum in an amount of 100 μg/cm^2 and above (e.g., 125, 135, 150, 175, 200 μg/cm^2 or higher).

[4] = test system: patients with sebaceous adenoma; test: Treatment of sebaceous adenoma
Protocol: The compound of the disclosure (e.g., dexmecamylamine substantially free of exo-R-mecamylamine) is administered to patients with sebaceous adenoma. […] In some embodiments, the subject produces sebum in an amount of 100 μg/cm^2 and above (e.g., 125, 135, 150, 175, 200 μg/cm^2 or higher).

[5] = test system: patients with oily skin; test: Treatment of oily skin
Protocol: The compound of the disclosure (e.g., dexmecamylamine substantially free of exo-R-mecamylamine) is administered to patients with oily skin. […] In some embodiments, the subject produces sebum in an amount of 100 μg/cm^2 and above (e.g., 125, 135, 150, 175, 200 μg/cm^2 or higher).

[6] = test system: patients with acne; test: Treatment of acne
Protocol: The compound of the disclosure (e.g., dexmecamylamine substantially free of exo-R-mecamylamine or pharmaceutically acceptable salt thereof) is administered to patients with acne. […] In some embodiments, the compound is dexmecamylamine substantially free of exo-R-mecamylamine, or a pharmaceutically acceptable salt thereof. In some embodiments, the subject produces sebum in an amount of 100 μg/cm^2 and above (e.g., 125, 135, 150, 175, 200 μg/cm^2 or higher). In particular, 4 mg of dexmecamylamine hydrochloride is administered orally twice a day to a subject. Subjects have oily skin (>100 μg/cm^2) as measured on three locations of the face by a Sebumeter® grease spot photometry device and has facial acne vulgaris (including the nose). Efficacy is determined by a comparison of sebum as an absolute change from baseline at 12 weeks. Other measures of efficacy include the absolute change from baseline in inflammatory and non-inflammatory lesion counts at 8 weeks and the percent change from baseline in lesion counts (inflammatory and noninflammatory) at weeks 8 and 12. […] The assessment may include the quantity of lesions, size of lesions, intensity of inflammation, and location of lesions to consider the quality and quantity of lesions.

[7] = test system: patients with sebaceous hyperplasia; test: Treatment of sebaceous hyperplasia
Protocol: The compound of the disclosure (e.g., dexmecamylamine substantially free of exo-R-mecamylamine) is administered to patients with sebaceous hyperplasia. […] In some embodiments, the subject produces sebum in an amount of 100 μg/cm^2 and above (e.g., 125, 135, 150, 175, 200 μg/cm^2 or higher).

[8] = test system: patients with seborrhea; test: Treatment of seborrhea
Protocol: The compound of the disclosure (e.g., dexmecamylamine substantially free of exo-R-mecamylamine) is administered to patients with seborrhea. […] In some embodiments, the subject produces sebum in an amount of 100 μg/cm^2 and above (e.g., 125, 135, 150, 175, 200 μg/cm^2 or higher).

[9] = test system: patients with hidradenitis suppurativa; test: Treatment of hidradenitis suppurativa
Protocol: The compound of the disclosure (e.g., dexmecamylamine substantially free of exo-R-mecamylamine) is administered to patients with hidradenitis suppurativa. […] In some embodiments, the subject produces sebum in an amount of 100 μg/cm^2 and above (e.g., 125, 135, 150, 175, 200 μg/cm^2 or higher). In particular, 4 mg of dexmecamylamine hydrochloride is administered orally twice a day to a subject with hidradenitis suppurativa. Efficacy is measured by a change in pain, as measured using a 10-point numerical rating scale, 1 through 10, with 10 being the worst, from baseline to week 12; a change in quality of life using Dermatology Life Quality Index (DLQI) from baseline to week 12; a change in clinical status using the Hurley Staging from baseline to week 12; a change in clinical status using the International Hidradenitis Suppurative Severity Score System (IHS4) from baseline to week 12; a change in clinical status using the Hidradenitis Suppurative Clinical Response (HiSCR) from baseline to week 12; a change in clinical status using the Hidradenitis Suppurative Physician Global Assessment (HS-PGA) from baseline to week 12; a change in clinical status using the Hidradenitis Suppurative Area and Severity Index-Revised (HASI-R) from baseline to week 12; and/or a change in the absolute number of abscesses and inflammatory nodules.

[10] = test system: patients with sebaceous carcinoma; test: Treatment of sebaceous carcinoma
Protocol: The compound of the disclosure (e.g., dexmecamylamine substantially free of exo-R-mecamylamine) is administered to patients with sebaceous carcinoma. […] In some embodiments, the subject produces sebum in an amount of 100 μg/cm^2 and above (e.g., 125, 135, 150, 175, 200 μg/cm^2 or higher).

[11] = test system: patients with seborrheic dermatitis; test: Treatment of seborrheic dermatitis
Protocol: The compound of the disclosure (e.g., dexmecamylamine substantially free of exo-R-mecamylamine) is administered to patients with seborrheic dermatitis. […] In some embodiments, the subject produces sebum in an amount of 100 μg/cm^2 and above (e.g., 125, 135, 150, 175, 200 μg/cm^2 or higher).

[12] = test system: human subjects with hyperhidrosis and oily skin; test: Phase II clinical study, facial sebum production; conditions: for Average response category at 2 weeks: change in percent of average facial sebum quantity at end of 2-week treatment vs baseline; for Average response category at 4 weeks: change in percent of average facial sebum quantity at end of 4-week treatment vs baseline; for Responders (%): subjects with 20% or greater reduction in sebum quantity following treatment
Text: Acne vulgaris is a dermatological condition characterized by increased sebum production, which is driven, in part, by cholinergic signaling within the sympathetic nervous system. Activation of nicotinic receptors on human sebaceous glands is known to increase sebum production and secretion. Dexmecamylamine acts on nicotinic acetylcholine receptors to reduce sympathetic tone through the selective inhibition of presynaptic nicotinic receptors in the sympathetic ganglia. In order to determine the therapeutic efficacy of dexmecamylamine in the treatment of acne and related conditions, the inventors leveraged a Phase II clinical study in 15 human subjects with hyperhidrosis and oily skin (i.e., sebum production of 100 μg/cm^2 or greater (e.g., 125, 135, 150, 175, 200 μg/cm^2 or higher)) that were treated with dexmecamylamine hydrochloride. […] [table]

Compound: CN[C@@]1(C)[C@@H]2CC[C@@H](C2)C1(C)C [dexmecamylamine]
- symptoms, enlarged pores [1]: improved symptoms
- symptoms, wrinkles [2]: improved symptoms
- symptoms, sebaceous cyst [3]: improved symptoms
- symptoms, sebaceous adenoma [4]: improved symptoms
- symptoms, oil production by the skin [5]: improved symptoms
- symptoms of acne (whiteheads, blackheads, papules, pimples, nodules, cysts) [6]: improved symptoms
- symptoms, sebaceous hyperplasia [7]: improved symptoms
- symptoms, seborrhea [8]: improved symptoms
- symptoms, hidradenitis suppurativa [9]: improved symptoms
- symptoms, sebaceous carcinoma [10]: improved symptoms
- symptoms, seborrheic dermatitis [11]: improved symptoms
- Average response category at 2 weeks ([12]; 2 mg BID): Low (Reduction in sebum production of less than 20%.)
- Average response category at 4 weeks ([12]; 2 mg BID): Medium^†† (Reduction in sebum production between 20% and 35%.)
- Responders (%) ([12]; 2 mg BID): 80%
- facial sebum production ([12]; 2 mg or 4 mg BID, four weeks of treatment): reduction in facial sebum production
- Average response category at 2 weeks ([12]; 4 mg BID): Low (Reduction in sebum production of less than 20%.)
- Average response category at 4 weeks ([12]; 4 mg BID): High^††† (Reduction in sebum production of greater than 35%.)
- Responders (%) ([12]; 4 mg BID): 100%
